Legend:
[1] = test system: P. aeruginosa PAO1 variant, which constitutively expresses AmpC; test: Combinatorial antibacterial activity (MIC of PIPC) in combination with test compound, agar plate dilution; assay type: cell-based, Pseudomonas aeruginosa; details: for MIC: Pseudomonas aeruginosa, PAO1; for effect of the compound in combination with an antibiotic: result in words
Description: The biological activity of the above-mentioned compounds represented by formulae (H) and (s) can be measured as follows. Specifically, an enzyme inhibitory activity (IC50 value) against AmpC enzyme which is a class C β-lactamase was determined using nitrocephin as a substrate to check whether or not the compounds had the inhibitory activity and compare the activities of them. Further, using constitutive AmpC producing Pseudomonas aeruginosa, a combined antimicrobial activity (MIC) was measured when using Piperacillin (PIPC) as an antibiotic and the compound of formula (H) or (s) in combination to check whether or not the antimicrobial activity of PIPC could be restored.
The combinatorial effect of the test compound with a β-lactam agent against bacteria was evaluated using AmpC constitutive expression strain selected from P. aeruginosa PAO1 through agent exposure. Using piperacillin (PIPC, Sigma-Aldrich) as a β-lactam agent, measurement was conducted by agar plate dilution process in which minimal inhibitory concentration (MIC) of PIPC is based on Clinical and Laboratory Standards Institute (CLSI process). That is, an agara plate containing 4 μg/mL (final concentration) of test compound and PIPC at each concentration in Mueller-Hinton agar (Becton, Dickinson and Company) was made, and bacteria cultured overnight in cation-adjusted Muller-Hinton broth (Becton, Dickinson and Company) were adjusted in the same medium so as to have 10^4 CFU/spot and inoculated on a plate containing an agent. This plate containing an agent was cultured overnight at 35° C., and the minimum agent concentration in which no growth of bacteria is observed was determined to be MIC.

[2] = biological target: AmpC (Pseudomonas aeruginosa (strain ATCC 15692 / DSM 22644 / CIP 104116 / JCM 14847 / LMG 12228 / 1C / PRS 101 / PAO1), UniProt P24735); assay type: biochemical; details: result in words
Chain of AmpC (P24735 27-397): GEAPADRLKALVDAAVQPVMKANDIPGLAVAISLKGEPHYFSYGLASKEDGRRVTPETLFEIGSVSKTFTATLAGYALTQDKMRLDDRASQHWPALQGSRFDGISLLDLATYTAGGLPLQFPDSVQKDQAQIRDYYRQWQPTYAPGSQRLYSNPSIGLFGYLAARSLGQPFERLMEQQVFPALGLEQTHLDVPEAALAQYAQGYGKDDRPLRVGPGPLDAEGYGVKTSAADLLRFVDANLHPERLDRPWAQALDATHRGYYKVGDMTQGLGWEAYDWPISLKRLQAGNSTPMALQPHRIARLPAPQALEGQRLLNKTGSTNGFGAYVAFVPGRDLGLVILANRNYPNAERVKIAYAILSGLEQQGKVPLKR
Description: The biological activity of the above-mentioned compounds represented by formulae (H) and (s) can be measured as follows. […] Further, using constitutive AmpC producing Pseudomonas aeruginosa, a combined antimicrobial activity (MIC) was measured when using Piperacillin (PIPC) as an antibiotic and the compound of formula (H) or (s) in combination to check whether or not the antimicrobial activity of PIPC could be restored.
Using P. aeruginosa PAO1 genome as a template, a DNA for encoding an AmpC β-lactamase domain excluding a signal peptide was amplified with PCR. This PCR product was incorporated into pET-28b(+)vector (Merck), introduced into E. coli BL21 (Merck), and, under induction of 1 mM isopropyl-β-D-(−)-thiogalactopyranoside (Nacalai Tesque), cultured overnight at 20° C. to express AmpC. After the bacterial cell was collected, AmpC was purified from the cell extract obtained by ultrasonic treatment, using CM Sepharose Fast Flow (GE Healthcare) and HiTrap Heparin HP (GE Healthcare) at 4° C.

NC(=O)[C@@H]1CC[C@@H]2CN1C(=O)N2OS(=O)(=O)[O-].[Na+] [Example 23, (2S,5R)-1,6-Diazabicyclo[3.2.1]octane-2-carboxamide, 7-oxo-6-(sulfoxy)-monosodium salt]
MIC [1]: 4 µg/mL | effect of the compound in combination with an antibiotic [1]: exhibited the activities | β-lactamase enzyme inhibitory activity [2]: exhibited the activities

C[C@]1(Cn2ccnn2)[C@H](C(=O)[O-])N2C(=O)C[C@H]2S1(=O)=O.[Na+] [TAZ, Tazobactam, reference compound]
MIC [1]: 64 µg/mL

NC(=O)[C@H]1CC[C@H]2CN1C(=O)N2OS(=O)(=O)[O-].[Na+] [Example 24, (2R,5S)-1,6-Diazabicyclo[3.2.1]octane-2-carboxamide, 7-oxo-6-(sulfoxy)-monosodium salt]
MIC [1]: 64 µg/mL | effect of the compound in combination with an antibiotic [1]: exhibited no activity | β-lactamase enzyme inhibitory activity [2]: exhibited no activity

— patent US9676777B2, “Compounds useful for producing an optically active diazabicyclooctane compound” (Meiji Seika Pharma Co., Ltd., priority 2010, dated 2017)
